# ± gives the standard deviation of the averaged measurements.
# Experiments:
# Assay in all cases: normalised growth rate inhibition (GR value) relative to DMSO control (GR (1 = untreated growth, 0 = cytostasis, <0 = cytotoxic)); higher = less growth inhibition
# Details in all cases: 72 h
# BT20 = system: BT20
# Description: (§1)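 Breast cancer cell lines (BT-20, Hs 578T, MCF 10A, MCF7, MDA-MB-231, SK-BR-3) were plated in 384-well plates and treated 24 h later with drugs at six concentrations (0.04-10 µM). Viable cells were counted by Hoechst/dead-cell-stain imaging at 0 and 72 h. Counts were normalised to DMSO controls on the same plate to give the relative cell count and the growth-rate inhibition (GR) value; technical plate triplicates were averaged for each biological replicate.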
# HS578T = system: HS578T
# Description: as §1
# MCF10A = system: MCF10A
# Description: as §1
# MCF7 = system: MCF7
# Description: as §1
# MDAMB231 = system: MDAMB231
# Description: as §1
# SKBR3 = system: SKBR3
# Description: as §1
Compound,normalised growth rate inhibition (BT20; 0.04 µM),normalised growth rate inhibition (BT20; 0.12 µM),normalised growth rate inhibition (BT20; 0.37 µM),normalised growth rate inhibition (BT20; 1.11 µM),normalised growth rate inhibition (BT20; 3.33 µM),normalised growth rate inhibition (BT20; 10 µM),normalised growth rate inhibition (HS578T; 0.04 µM),normalised growth rate inhibition (HS578T; 0.12 µM),normalised growth rate inhibition (HS578T; 0.37 µM),normalised growth rate inhibition (HS578T; 1.11 µM),normalised growth rate inhibition (HS578T; 3.33 µM),normalised growth rate inhibition (HS578T; 10 µM),normalised growth rate inhibition (MCF10A; 0.04 µM),normalised growth rate inhibition (MCF10A; 0.12 µM),normalised growth rate inhibition (MCF10A; 0.37 µM),normalised growth rate inhibition (MCF10A; 1.11 µM),normalised growth rate inhibition (MCF10A; 3.33 µM),normalised growth rate inhibition (MCF10A; 10 µM),normalised growth rate inhibition (MCF7; 0.04 µM),normalised growth rate inhibition (MCF7; 0.12 µM),normalised growth rate inhibition (MCF7; 0.37 µM),normalised growth rate inhibition (MCF7; 1.11 µM),normalised growth rate inhibition (MCF7; 3.33 µM),normalised growth rate inhibition (MCF7; 10 µM),normalised growth rate inhibition (MDAMB231; 0.04 µM),normalised growth rate inhibition (MDAMB231; 0.12 µM),normalised growth rate inhibition (MDAMB231; 0.37 µM),normalised growth rate inhibition (MDAMB231; 1.11 µM),normalised growth rate inhibition (MDAMB231; 3.33 µM),normalised growth rate inhibition (MDAMB231; 10 µM),normalised growth rate inhibition (SKBR3; 0.04 µM),normalised growth rate inhibition (SKBR3; 0.12 µM),normalised growth rate inhibition (SKBR3; 0.37 µM),normalised growth rate inhibition (SKBR3; 1.11 µM),normalised growth rate inhibition (SKBR3; 3.33 µM),normalised growth rate inhibition (SKBR3; 10 µM)
COc1cc2c(Oc3ccc(NC(=O)C4(C(=O)Nc5ccc(F)cc5)CC4)cc3F)ccnc2cc1OCCCN1CCOCC1 [foretinib],1.02 ± 0.046,0.799 ± 0.15,0.236 ± 0.22,-0.00958 ± 0.12,-0.0192 ± 0.12,-0.124 ± 0.12,0.936 ± 0.045,0.845 ± 0.011,0.381 ± 0.15,0.256 ± 0.14,0.178 ± 0.14,-0.223 ± 0.12,1.03 ± 0.031,0.992 ± 0.028,0.902 ± 0.034,0.429 ± 0.1,0.154 ± 0.043,-0.0329 ± 0.028,1.01 ± 0.025,0.495 ± 0.2,0.134 ± 0.019,0.0492 ± 0.039,0.00497 ± 0.016,-0.225 ± 0.025,0.91 ± 0.037,0.615 ± 0.012,0.168 ± 0.12,0.113 ± 0.12,0.0741 ± 0.17,-0.211 ± 0.056,1.07 ± 0.037,0.812 ± 0.26,0.0769 ± 0.069,-0.0562 ± 0.079,-0.034 ± 0.083,-0.0967 ± 0.11
COc1cc(OC)cc(-c2ccc3ncc4ccc(=O)n(-c5ccc(N6CCNCC6)c(C(F)(F)F)c5)c4c3c2)c1 [JW-7-24-1],0.797 ± 0.057,0.876 ± 0.078,0.822 ± 0.08,0.755 ± 0.18,0.61 ± 0.25,-0.0316 ± 0.17,0.929 ± 0.017,0.89 ± 0.039,0.765 ± 0.034,0.581 ± 0.029,0.384 ± 0.037,-0.198 ± 0.14,0.986 ± 0.034,0.986 ± 0.044,0.952 ± 0.069,0.911 ± 0.11,0.84 ± 0.15,0.176 ± 0.17,0.607 ± 0.09,0.551 ± 0.07,0.373 ± 0.12,0.236 ± 0.08,0.139 ± 0.078,-0.135 ± 0.0036,0.823 ± 0.12,0.859 ± 0.088,0.754 ± 0.09,0.624 ± 0.12,0.543 ± 0.11,-0.122 ± 0.17,0.615 ± 0.034,0.695 ± 0.042,0.591 ± 0.047,0.457 ± 0.038,0.273 ± 0.041,-0.224 ± 0.14
CCc1cc(Nc2nccc(-c3c(-c4ccc(OC)c(C(=O)Nc5c(F)cccc5F)c4)nc4ccccn34)n2)c(OC)cc1N1CCC(N2CCN(S(C)(=O)=O)CC2)CC1,0.821 ± 0.056,0.902 ± 0.036,0.916 ± 0.017,0.937 ± 0.042,0.961 ± 0.029,0.999 ± 0.043,0.96 ± 0.025,0.958 ± 0.013,0.965 ± 0.017,0.931 ± 0.024,0.951 ± 0.032,0.955 ± 0.023,0.719 ± 0.2,0.699 ± 0.19,0.656 ± 0.22,0.608 ± 0.23,0.621 ± 0.23,0.634 ± 0.18,0.473 ± 0.16,0.418 ± 0.17,0.404 ± 0.092,0.363 ± 0.081,0.358 ± 0.069,0.319 ± 0.091,0.813 ± 0.093,0.864 ± 0.045,0.893 ± 0.027,0.9 ± 0.011,0.971 ± 0.02,0.939 ± 0.024,0.701 ± 0.094,0.841 ± 0.045,0.98 ± 0.02,0.986 ± 0.057,1.04 ± 0.023,1.05 ± 0.027
Cc1ccc2nc(NCCN)c3ncc(C)n3c2c1,1.01 ± 0.027,0.968 ± 0.055,0.952 ± 0.087,0.847 ± 0.12,0.778 ± 0.082,-0.00828 ± 0.2,1.01 ± 0.018,0.998 ± 0.018,0.99 ± 0.021,0.92 ± 0.049,0.723 ± 0.11,-0.218 ± 0.13,0.996 ± 0.011,0.979 ± 0.014,0.974 ± 0.016,0.967 ± 0.019,0.957 ± 0.018,0.85 ± 0.046,1.06 ± 0.058,1 ± 0.06,0.883 ± 0.058,0.502 ± 0.14,0.0136 ± 0.12,-0.348 ± 0.14,0.9929 ± 0.0097,0.936 ± 0.097,0.885 ± 0.06,0.652 ± 0.085,0.265 ± 0.11,-0.253 ± 0.2,1.05 ± 0.043,1.01 ± 0.088,0.929 ± 0.11,0.604 ± 0.066,0.192 ± 0.13,-0.358 ± 0.23
COc1cc(C(=O)NC2CCN(C)CC2)ccc1Nc1ncc2c(n1)N(C1CCCC1)CCC(=O)N2C(C)C,0.783 ± 0.068,0.948 ± 0.1,0.933 ± 0.14,0.936 ± 0.11,0.888 ± 0.1,0.734 ± 0.15,0.972 ± 0.024,0.964 ± 0.045,0.93 ± 0.03,0.917 ± 0.0095,0.8447 ± 0.0079,0.275 ± 0.079,0.975 ± 0.04,0.979 ± 0.045,0.984 ± 0.019,0.972 ± 0.024,0.948 ± 0.029,0.758 ± 0.086,0.764 ± 0.077,0.84 ± 0.053,0.858 ± 0.07,0.807 ± 0.02,0.758 ± 0.065,0.298 ± 0.024,0.765 ± 0.047,0.884 ± 0.069,0.86 ± 0.068,0.834 ± 0.077,0.767 ± 0.093,0.308 ± 0.08,0.601 ± 0.093,0.755 ± 0.053,0.775 ± 0.079,0.758 ± 0.088,0.787 ± 0.082,0.511 ± 0.17
CC(=O)c1c(C)c2cnc(Nc3ccc(N4CCNCC4)cn3)nc2n(C2CCCC2)c1=O [palbociclib],0.654 ± 0.069,0.53 ± 0.14,0.412 ± 0.13,0.295 ± 0.082,0.273 ± 0.066,0.196 ± 0.033,0.68 ± 0.03,0.569 ± 0.024,0.485 ± 0.044,0.411 ± 0.032,0.397 ± 0.019,0.327 ± 0.018,0.839 ± 0.037,0.743 ± 0.052,0.666 ± 0.048,0.581 ± 0.038,0.534 ± 0.019,0.408 ± 0.051,0.696 ± 0.09,0.552 ± 0.13,0.447 ± 0.15,0.356 ± 0.13,0.32 ± 0.055,0.294 ± 0.024,0.675 ± 0.092,0.579 ± 0.077,0.477 ± 0.075,0.407 ± 0.043,0.35 ± 0.027,0.278 ± 0.039,0.819 ± 0.12,0.683 ± 0.037,0.612 ± 0.05,0.595 ± 0.038,0.568 ± 0.049,0.517 ± 0.046
C[C@@H]1C[C@H]2O[C@@H]2/C=C\C=C\C(=O)Cc2c(Cl)c(O)cc(O)c2C(=O)O1 [radicicol],0.839 ± 0.08,0.395 ± 0.11,0.115 ± 0.088,-0.0176 ± 0.13,-0.0598 ± 0.11,-0.163 ± 0.097,1.029 ± 0.01,0.95 ± 0.091,0.704 ± 0.27,0.321 ± 0.19,0.0951 ± 0.08,0.049 ± 0.12,0.886 ± 0.075,0.598 ± 0.21,0.299 ± 0.15,0.104 ± 0.021,-0.0227 ± 0.054,-0.182 ± 0.1,0.574 ± 0.059,0.262 ± 0.033,0.124 ± 0.04,0.123 ± 0.036,0.115 ± 0.035,-0.0962 ± 0.041,1.06 ± 0.035,0.744 ± 0.084,0.298 ± 0.12,0.0741 ± 0.12,0.0054 ± 0.14,-0.0299 ± 0.12,0.329 ± 0.053,0.0873 ± 0.083,0.0279 ± 0.1,-0.0112 ± 0.14,-0.0134 ± 0.1,-0.166 ± 0.053

# Source: the supplement of paper PMC5662764
